The values below are quoted from earlier work in patent US11464797B2, “Use of vitamin composition in preparing drug for preventing, treating, or delaying Alzheimer's disease” (Zensun (Shanghai) Science & Technology, Co., Ltd., priority 2017, dated 2022).

One data set deals with ATP level in CA1 area. The settings on record: after 10 min of hypoxia in rats, magnesium ion treated brain slices; untreated 16% of normal.
The test system of data set [1] is patients with mild cognitive impairment (MCI). Conditions: long-term intake (6-48 months).

Consider `[Mg+2]` [magnesium ion, magnesium], for which, in the data set with ATP level in CA1 area, the “ATP level, of normal brain slices” value is listed as 32%. For vitamin E, the cognitive function result in data set [1] is reported as “effectively improve cognitive function”.
